From paper PMC11310081, “Deep-learning-enabled antibiotic discovery through molecular de-extinction” (Nature Biomedical Engineering, 2024) come the findings set out here.

As usually defined, the CC50 is the concentration at which the toxic effect on the cells reaches its halfway point. A high value points to lower toxicity to the cells.

In brackets after ≈: the same amount, converted by molar mass. Read-outs that look alike come from different tables or passages of the source. Peptide text beside a SMILES is read from it.

Data set [1] relates to 11 clinically relevant bacterial pathogens. Type of data set: cell-based. The settings on record: Supplementary Dataset 2; against the 11 pathogens tested. An excerpt: (§1) The following Gram-negative bacteria were used in our study: A. baumannii ATCC 19606, E. coli ATCC 11775, E. coli AIC221 (E. coli MG1655 phnE_2::FRT), E. coli AIC222 (E. coli MG1655 pmrA53 phnE_2::FRT (colistin resistant)), K. pneumoniae ATCC 13883, P. aeruginosa PAO1 and P. aeruginosa PA14. The following Gram-positive bacteria were also used in our study: S. aureus ATCC 12600, S. aureus ATCC BAA-1556 (methicillin-resistant strain), E. faecalis ATCC 700802 (vancomycin-resistant strain) and E. faecium ATCC 700221 (vancomycin-resistant strain). Bacteria were grown from frozen stocks and plated on Luria–Bertani (LB) or Pseudomonas isolation agar plates (P. aeruginosa strains) and incubated overnight at 37 °C. After the incubation period, a single colony was transferred to 5 ml of LB medium, and cultures were incubated overnight (16 h) at 37 °C. The following day, an inoculum was prepared by diluting the overnight cultures 1:100 in 5 ml of the respective media and incubating them at 37 °C until bacteria reached logarithmic phase (OD600 = 0.3–0.5).
(§2) The in vitro antimicrobial activity of the peptides was assessed by using the broth microdilution assay. […] Aqueous solutions of the peptides were added to the plate at concentrations ranging from 1 to 64 μmol l^−1. […] The optical density of the plates was measured at 600 nm using a spectrophotometer. All assays were done as three biological replicates.

In another data set the test system is HEK293T cells. As to the method: HEK293T cells were obtained from the American Type Culture Collection (CRL-3216). The cells were cultured in high-glucose Dulbecco’s modified Eagle’s medium supplemented with 1% penicillin and streptomycin (antibiotics) and 10% fetal bovine serum and grown at 37 °C in a humidified atmosphere containing 5% CO2.
One day before the experiment, an aliquot of 100 μl of the cells at 50,000 cells per ml was seeded into each well of the cell-treated 96-well plates used in the experiment (that is, 5,000 cells per well). […] After the incubation period, we performed the 3-(4,5-dimethylthiazol-2-yl)-2,5-diphenyltetrazolium bromide tetrazolium reduction assay (MTT assay)[53]. The MTT reagent was dissolved at 0.5 mg ml^−1 in medium without phenol red and was used to replace cell culture supernatants containing the peptides (100 μl per well), and the samples were incubated for 4 h at 37 °C in a humidified atmosphere containing 5% CO2 yielding the insoluble formazan salt. The resulting salts were then resuspended in hydrochloric acid (0.04 mol l^−1) in anhydrous isopropanol and quantified by spectrophotometric measurements of absorbance at 570 nm. All assays were done as three biological replicates.
Unless otherwise stated, all assays were performed in three independent biological replicates as indicated in each figure legend and Methods sections. The cytotoxic activities values were estimated using non-linear regression based on the range of concentrations screened and were shown as the values that cause lysis of 50% of the cells in the experiment. Two technical replicates were performed in the cytotoxicity assays within each of the three biological replicates.

The subject of data set [2] is E. faecium ATCC 700221 (vancomycin-resistant strain). It counts as cell-based, Enterococcus faecium. The settings on record: ATCC 700221, 20 h.
Excerpt: as §1, §2

For another data set, the system named is A. baumannii ATCC 19606. Type of data set: cell-based, Acinetobacter baumannii. The settings on record: ATCC 19606, 20 h.
Excerpt: as §1, §2

For another data set, the system named is E. coli AIC221. It counts as cell-based, Escherichia coli. The settings on record: AIC221, 20 h.
Excerpt: as §1, §2

For a further data set, the system named is K. pneumoniae ATCC 13883. It counts as cell-based, Klebsiella pneumoniae. The settings on record: ATCC 13883, 20 h.
Excerpt: as §1, §2

`CC[C@H](C)[C@H](NC(=O)[C@H](Cc1ccccc1)NC(=O)[C@H](CC(N)=O)NC(=O)[C@@H](NC(=O)[C@@H](NC(=O)[C@H](Cc1c[nH]cn1)NC(=O)[C@@H](N)CC(C)C)[C@@H](C)O)[C@@H](C)CC)C(=O)N[C@H](C(=O)N[C@@H](CCCCN)C(=O)N[C@@H](CO)C(=O)N[C@@H](CC(C)C)C(=O)N[C@@H](CC(C)C)C(=O)N[C@@H](CC(C)C)C(=O)O)[C@@H](C)CC` [Bisonin-1] (H-LHTINFIIKSLLL-OH; N-terminus and C-terminus assumed): the “Active or Inactive” value in data set [1] is “Active”. Also, in the data set on HEK293T cells (24 h), the CC50 is > 128 µM and the “TI (therapeutic index)” value was > 8. Moreover, in data set [2], the “Minimal inhibitory concentration, E. faecium ATCC700221-VRE” value is 16 µM (≈ 24.4 µg/mL).

For `CC[C@H](C)[C@H](NC(=O)[C@H](CCCCN)NC(=O)[C@@H](NC(=O)[C@H](Cc1c[nH]c2ccccc12)NC(=O)[C@@H](N)CCCCN)[C@@H](C)O)C(=O)N[C@@H](Cc1ccc(O)cc1)C(=O)N[C@@H](CC(C)C)C(=O)N1CCC[C@H]1C(=O)N[C@@H](CC(C)C)C(=O)N[C@@H](CC(C)C)C(=O)N[C@@H](CC(C)C)C(=O)N1CCC[C@H]1C(=O)N[C@@H](CC(C)C)C(=O)O` [Bisonin-2] (H-KWTKIYLPLLLPL-OH; N-terminus and C-terminus assumed), the “Active or Inactive” value in data set [1] was “Active”. Also, the CC50 in the data set with HEK293T cells (24 h) is > 128 µM. The “Minimal inhibitory concentration, A. baumannii ATCC19606” value in the data set on A. baumannii ATCC 19606 came out at 8 µM (≈ 12.8 µg/mL). In data set [2], the “Minimal inhibitory concentration, E. faecium ATCC700221-VRE” value came out at 8 µM (≈ 12.8 µg/mL).

As for `CC[C@H](C)[C@H](NC(=O)[C@H](CCCCN)NC(=O)[C@H](CC(C)C)NC(=O)[C@@H](NC(=O)[C@@H](N)CCCCN)[C@@H](C)O)C(=O)N[C@H](C(=O)N[C@@H](CCCNC(=N)N)C(=O)N[C@@H](CC(C)C)C(=O)N[C@@H](CC(C)C)C(=O)N[C@@H](Cc1ccccc1)C(=O)O)[C@@H](C)CC` [Mammuthusin-3] (H-KTLKIIRLLF-OH; N-terminus and C-terminus assumed), in data set [1], the “Active or Inactive” value was “Active”. For the same compound, the 50% cytotoxic concentration (CC50) in the data set with HEK293T cells (24 h) is > 128 µM. Besides, in the data set with A. baumannii ATCC 19606, the “Minimal inhibitory concentration, A. baumannii ATCC19606” value came to 32 µM (≈ 39.8 µg/mL). The “Minimal inhibitory concentration, E. coli AIC221” value in the data set on E. coli AIC221 was found to be 16 µM (≈ 19.9 µg/mL).

On to `CC[C@H](C)[C@H](NC(=O)[C@@H]1CCCN1C(=O)[C@H](CC(N)=O)NC(=O)[C@@H]1CCCN1C(=O)[C@@H]1CCCN1C(=O)[C@H](CCCCN)NC(=O)[C@@H](N)CCCCN)C(=O)N[C@@H](CCCCN)C(=O)N1CCC[C@H]1C(=O)N[C@@H](CCCCN)C(=O)N[C@H](C(=O)N1CCC[C@H]1C(=O)N[C@@H](CC(C)C)C(=O)N[C@@H](CO)C(=O)N[C@@H](C)C(=O)N1CCC[C@H]1C(=O)N[C@@H](CCCNC(=N)N)C(=O)N[C@@H](CCCCN)C(=O)N[C@@H](CO)C(=O)N1CCC[C@H]1C(=O)N[C@@H](CC(N)=O)C(=O)N[C@H](C(=O)N[C@H](C(=O)N[C@@H](CCCCN)C(=O)N[C@@H](Cc1ccc(O)cc1)C(=O)N[C@@H](CCCNC(=N)N)C(=O)N[C@@H](CC(C)C)C(=O)N[C@@H](CCCCN)C(=O)N[C@@H](Cc1ccccc1)C(=O)N[C@@H](CCCNC(=N)N)C(=O)O)C(C)C)[C@@H](C)O)C(C)C` [Mammuthusin-5] (H-KKPPNPIKPKVPLSAPRKSPNTVKYRLKFR-OH; N-terminus and C-terminus assumed), for which the “Active or Inactive” value in data set [1] was “Active”. In the data set on HEK293T cells (24 h), the CC50 is > 128 µM and the “TI (therapeutic index)” value is reported as > 4. In the data set with A. baumannii ATCC 19606, the “Minimal inhibitory concentration, A. baumannii ATCC19606” value is 32 µM (≈ 112 µg/mL).

As for `CC[C@H](C)[C@H](NC(=O)[C@@H](NC(=O)[C@H](CCSC)NC(=O)[C@@H](N)Cc1c[nH]c2ccccc12)[C@@H](C)O)C(=O)N[C@@H](Cc1c[nH]cn1)C(=O)N[C@@H](C)C(=O)N[C@@H](CC(C)C)C(=O)N[C@@H](CCCCN)C(=O)N[C@@H](CC(C)C)C(=O)N[C@@H](CO)C(=O)N[C@@H](CC(C)C)C(=O)N[C@@H](CO)C(=O)N[C@@H](Cc1ccccc1)C(=O)N[C@@H](CCCCN)C(=O)N[C@@H](CC(C)C)C(=O)O` [Mammutin-1] (H-WMTIHALKLSLSFKL-OH; N-terminus and C-terminus assumed), the “Active or Inactive” value in data set [1] is “Active”. In the data set on HEK293T cells (24 h), the CC50 is > 128 µM and the “TI (therapeutic index)” value was > 64. Besides, the “Minimal inhibitory concentration, E. faecium ATCC700221-VRE” value in data set [2] worked out at 2 µM (≈ 3.58 µg/mL).

In the case of `CC[C@H](C)[C@H](NC(=O)[C@H](CCCCN)NC(=O)[C@H](CO)NC(=O)[C@H](CC(N)=O)NC(=O)[C@H](Cc1ccccc1)NC(=O)[C@H](Cc1c[nH]cn1)NC(=O)[C@H](Cc1ccccc1)NC(=O)[C@@H](N)Cc1c[nH]c2ccccc12)C(=O)N[C@@H](CC(C)C)C(=O)N[C@@H](CC(C)C)C(=O)N[C@@H](CC(C)C)C(=O)N[C@H](C(=O)NCC(=O)N[C@@H](CC(C)C)C(=O)O)[C@@H](C)O` [Mylodonin-1] (H-WFHFNSKILLLTGL-OH; N-terminus and C-terminus assumed), in data set [1], the “Active or Inactive” value is on record as “Active”. In the data set with HEK293T cells (24 h), the CC50 was > 128 µM and the “TI (therapeutic index)” value is listed as > 16. The “Minimal inhibitory concentration, E. faecium ATCC700221-VRE” value in data set [2] stood at 8 µM (≈ 13.5 µg/mL).

`CC[C@H](C)[C@H](NC(=O)[C@H](CC(N)=O)NC(=O)[C@H](CC(C)C)NC(=O)[C@@H](NC(=O)[C@H](Cc1ccccc1)NC(=O)[C@@H]1CCCN1C(=O)[C@@H]1CCCN1C(=O)[C@@H](NC(=O)[C@H](CO)NC(=O)[C@H](CC(C)C)NC(=O)[C@H](CCCCN)NC(=O)[C@H](CCCCN)NC(=O)[C@H](Cc1ccc(O)cc1)NC(=O)[C@@H](NC(=O)[C@@H](N)CCCCN)[C@@H](C)CC)[C@@H](C)O)[C@@H](C)O)C(=O)N[C@@H](CCCNC(=N)N)C(=O)N[C@H](C(=O)N[C@@H](CC(C)C)C(=O)N1CCC[C@H]1C(=O)N[C@@H](CCCCN)C(=O)N[C@H](C(=O)N[C@@H](CCCCN)C(=O)N[C@@H](Cc1ccccc1)C(=O)N1CCC[C@H]1C(=O)N[C@@H](CCCCN)C(=O)O)C(C)C)[C@@H](C)O` [Mylodonin-3] (H-KIYKKLSTPPFTLNIRTLPKVKFPK-OH; N-terminus and C-terminus assumed): in data set [1], the “Active or Inactive” value was “Active”. Further, the CC50 with HEK293T cells (24 h) is > 128 µM. Besides, the “Minimal inhibitory concentration, A. baumannii ATCC19606” value in the data set with A. baumannii ATCC 19606 was 16 µM (≈ 47.3 µg/mL).

With `CC[C@H](C)[C@H](NC(=O)[C@H](CCCCN)NC(=O)[C@@H](NC(=O)[C@H](Cc1c[nH]c2ccccc12)NC(=O)[C@H](CCCCN)NC(=O)[C@@H](N)CCCCN)[C@@H](C)O)C(=O)N[C@@H](Cc1ccc(O)cc1)C(=O)N[C@@H](CO)C(=O)N1CCC[C@H]1C(=O)N[C@@H](CC(C)C)C(=O)N[C@@H](CO)C(=O)N[C@@H](CC(C)C)C(=O)O` [Smilodin-1] (H-KKWTKIYSPLSL-OH; N-terminus and C-terminus assumed), in data set [1], the “Active or Inactive” value is “Active”. Also, in the data set on K. pneumoniae ATCC 13883, the “Minimal inhibitory concentration, K. pneumoniae ATCC133883” value is 64 µM (≈ 93.7 µg/mL). Moreover, in the data set on HEK293T cells (24 h), the CC50 was > 128 µM and the “TI (therapeutic index)” value is on record as > 2.

Consider `CC[C@H](C)[C@H](NC(=O)[C@@H](N)[C@@H](C)O)C(=O)N[C@@H](CCCCN)C(=O)N[C@@H](CC(C)C)C(=O)N[C@@H](Cc1ccccc1)C(=O)N[C@@H](CC(C)C)C(=O)N[C@@H](CO)C(=O)N[C@@H](Cc1ccccc1)C(=O)N[C@@H](CCCCN)C(=O)N[C@@H](CC(C)C)C(=O)O` [Xenothrixin-1] (H-TIKLFLSFKL-OH; N-terminus and C-terminus assumed), for which the “Active or Inactive” value in data set [1] is reported as “Active”. Moreover, in the data set on HEK293T cells, the CC50 stood at 70.77 µM and the “TI (therapeutic index)” value came to 8.84. In addition, the CC50 in the data set on HEK293T cells (24 h) turned out to be 70.77 µM. In addition, the “Minimal inhibitory concentration, A. baumannii ATCC19606” value in the data set on A. baumannii ATCC 19606 worked out at 8 µM (≈ 9.68 µg/mL).
